# Source: US20100158850A1, “DENDRIMER BASED MODULAR PLATFORMS” (The Regents of the University of Michigan, priority 2008, published 2010)
# How the values were obtained:
# [1] = test system: FA-receptor-expressing KB cells; test: Cellular uptake of dendrimer conjugates in KB cells measured by flow cytometry; assay type: cell-based, human
# Method: (§1) The uptake of the synthesized conjugates was performed using FA-receptor-expressing KB cells (ATCC #CCL-17) as previously described (see, e.g., Thomas et al, J. Med. Chem., 48, 3729-3735, 2005; herein incorporated by reference in its entirety). Cells were maintained in FA-free Roswell Park Memorial Institute-1640 (RPMI 1640) medium supplemented with 10% Fetal Bovine serum (FBS), […] L-glutamine, 100 U/ml penicillin and 100 μg/ml streptomycin in 5% CO2 at 37° C. Cells were planted into 24 wells plate at density 250,000 per well and allowed to reach ˜90% confluent on the day of the experiment. They were rinsed and incubated in serum free medium with conjugates for 1 hour at 37° C. in 5% CO2. In some wells, a 20-fold excess of free folic acid or the folic acid conjugated dendrimer was added 30 minutes prior to the addition of the dendrimer platform for the blocking of folate receptors.
# (§2) The cellular fluorescence was quantified on a Beckman-Coulter EPICS-XL MCL flow cytometer, and the data were analyzed using Expo32 software (Beckman-Coulter, Miami, Fla.). Cells were trypsinized, rinsed and suspended in PBS containing 0.1% bovine serum albumin (PBSB). The viable cells were gated, and the mean FL1-fluorescence of 10,000 cells was quantified. Error bars are calculated using the half-peak coefficient of variation (HPCV) (see, e.g., Marie, D.; et al., Biol. Cell 1993, 78, 41-51; herein incorporated by reference in its entirety).
# Cellular uptake of the folic acid targeted dendrimer system (15) at four different concentrations (30 nM, 100 nM, 300 nM, and 1000 nM of 15) was measured in KB cells that express a high cellular membrane concentration of folic acid receptor (FAR). Fluorescence uptake was quantified by Flow Cytometry.
# A series of control experiments were performed in order to ensure that uptake of the folic acid targeted dendrimer system (15) was occurring via receptor-mediated endocytosis and not non-specific membrane interactions. […] The second control sample contained a non-conjugated (un-clicked) mixture of the two dendrimers functionalized with either FITC or folic acid (13 and 14). Uptake of this mixture was quantified at 30 nM, 100 nM, and 300 nM (FIGS. 5c and 5f-teal). […] This control eliminates the possibility that the dendrimer modules could form a non-covalently linked complex that would be internalized. A third control sample (18) was composed of an un-targeted dendrimer module (17) coupled to the FITC conjugated imaging module (14). The un-targeted dual module platform (18) was assembled under the same conditions used to form the folic acid targeted platform (15). […] This un-targeted dendrimer platform control matches the molecular weight and size of the folic acid targeted dendrimer system (15).
# folic acid receptor = molecular target: T1, folic acid receptor (Homo sapiens, UniProt P15328); test: Blocking of folate receptors: uptake of targeted platform 15 in KB cells with 20-fold excess blocking agent; assay type: cell-based; conditions: for Blocking of uptake of targeted platform 15 (FIG. 5d, 5e): 20 fold excess of blocking agent (for 13 with respect to folic acid content)
# T1 construct: performed using FA-receptor-expressing KB cells (ATCC #CCL-17); host or cells: KB cells
# T1 sequence (P15328 25-234): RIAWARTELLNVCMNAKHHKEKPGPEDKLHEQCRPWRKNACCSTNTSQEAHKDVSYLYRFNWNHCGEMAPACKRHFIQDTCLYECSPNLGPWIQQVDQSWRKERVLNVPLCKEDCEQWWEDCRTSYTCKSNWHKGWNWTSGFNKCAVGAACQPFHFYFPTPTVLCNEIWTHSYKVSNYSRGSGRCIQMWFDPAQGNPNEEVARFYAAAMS
# Method: as §1, §2
# The final set of controls investigated active blocking of the folic acid receptor by either free folic acid (FIGS. 5d and 5f-green) or a folic acid-dendrimer conjugate without a fluorescent dye (13) (FIGS. 5e and 5f-orange) to prevent the specific up-take of the folic acid targeted dendrimer systema A 20 fold excess of blocking agent was employed relative to the targeted platform. For the blocking experiment using the single dendrimer-folic acid conjugate (13), molar equivalence was based on the folic acid content of the sample rather than the dendrimer content. Both blocking agents were evaluated at 30 nM, 100 nM, 300 nM, and 1000 nM. […] While the dendrimer-folic acid conjugate is not as effective at blocking as the free folic acid, approximately 75% blocking is achieved.
compound,measurement,setting,value
G5-Ac106-Azide2.5-FITC3.2 [Compound 14],Cellular uptake (FIG. 5b),"[1]; KB cells, 30 nM, 100 nM and 300 nM",not observed
same,Cellular uptake above the background level,"[1]; KB cells, 30 nM, 100 nM, 300 nM and 1000 nM",No uptake was observed
same,Cellular uptake (FIG. 5b),"[1]; KB cells, 1000 nM",Very minimal uptake
G5-Ac110.7-L-G5-Ac106-FITC3.2 [Compound 18],Mean fluorescence uptake beyond the background level,"[1]; KB cells, concentrations up to 300 nM",no uptake was observed beyond the background level
G5-Ac107-Alkyne1.6-FA3.5 [Compound 13],Blocking of uptake of targeted platform 15,"folic acid receptor; 20 fold excess based on folic acid content, evaluated at 30-1000 nM",approximately 75%
same,"Blocking of uptake of targeted platform 15 (FIG. 5d, 5e)",folic acid receptor,successfully blocked
"Nc1nc2ncc(CNc3ccc(C(=O)N[C@@H](CCC(=O)O)C(=O)O)cc3)nc2c(=O)[nH]1 [free folic acid, folic acid, reference compound]","Blocking of uptake of targeted platform 15 (FIG. 5d, 5e)",folic acid receptor,successfully blocked
same,Blocking of uptake of targeted platform 15,"folic acid receptor; 20 fold excess, added 30 minutes before, concentrations up to 100 nM",Complete blocking
FA3.5-G5-Ac107-L-G5-Ac106-FITC3.2 [Compound 15],"Cellular uptake (fluorescence, flow cytometry)","[1]; KB cells, 1 hour at 37° C., 30 nM, 100 nM, 300 nM and 1000 nM",dose dependent uptake
same,Concentration at which uptake saturates,"[1]; KB cells, 1 hour at 37° C., tested at 30-1000 nM",100 nM
same,Specific targeting of folic acid receptor in vitro,[1]; human epithelial cancer cell line (KB),found to specifically target the over-expressed folic acid receptor
